# Source: ChEMBL document CHEMBL3860064, “Synthesis of (benzimidazol-2-yl)aniline derivatives as glycogen phosphorylase inhibitors” (Bioorg Med Chem, 2016)
# Tests used:
# [1] = Solubility of the compound in water; assay type: physicochemical; settings: buffer
# [2] = molecular target: T1, Glycogen phosphorylase, muscle form (Oryctolagus cuniculus, UniProt P00489); experiment: Inhibition of rabbit muscle glycogen phosphorylase b using […] preincubated for 60 mins followed by substrate addition in presence of glycogen
# T1 sequence (P00489 whole entry): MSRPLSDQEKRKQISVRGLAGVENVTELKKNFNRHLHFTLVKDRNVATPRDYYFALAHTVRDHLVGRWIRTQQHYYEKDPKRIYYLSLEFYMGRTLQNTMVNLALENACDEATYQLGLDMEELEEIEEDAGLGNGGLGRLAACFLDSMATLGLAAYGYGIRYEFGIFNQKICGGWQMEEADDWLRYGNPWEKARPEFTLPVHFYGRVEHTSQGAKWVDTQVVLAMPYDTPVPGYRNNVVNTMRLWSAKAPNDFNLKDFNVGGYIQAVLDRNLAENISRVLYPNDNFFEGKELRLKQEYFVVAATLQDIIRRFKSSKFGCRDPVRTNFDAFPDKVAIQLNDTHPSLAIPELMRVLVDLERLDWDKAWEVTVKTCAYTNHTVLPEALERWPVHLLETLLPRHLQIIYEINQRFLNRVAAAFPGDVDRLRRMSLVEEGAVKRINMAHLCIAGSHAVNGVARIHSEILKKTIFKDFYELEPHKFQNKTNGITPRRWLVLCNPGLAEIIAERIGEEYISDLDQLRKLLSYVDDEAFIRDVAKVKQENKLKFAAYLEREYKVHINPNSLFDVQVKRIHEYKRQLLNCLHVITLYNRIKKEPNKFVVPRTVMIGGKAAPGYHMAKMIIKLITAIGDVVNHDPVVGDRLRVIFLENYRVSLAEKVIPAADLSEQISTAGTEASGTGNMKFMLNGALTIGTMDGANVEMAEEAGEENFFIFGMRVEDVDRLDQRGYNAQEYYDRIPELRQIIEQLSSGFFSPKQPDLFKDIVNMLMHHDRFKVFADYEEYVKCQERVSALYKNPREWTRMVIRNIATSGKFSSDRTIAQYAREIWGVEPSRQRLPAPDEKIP
# [3] = molecular target: T2, Glycogen phosphorylase, liver form (Homo sapiens, UniProt P06737); experiment: Inhibition of human recombinant liver glycogen phosphorylase A expressed in baculovirus infected Sf9 insect cells assessed as release of phosphate from glucose-1- phosphate in presence of 7.5 mM glucose by malachite green based assay
# T2 sequence (P06737 whole entry): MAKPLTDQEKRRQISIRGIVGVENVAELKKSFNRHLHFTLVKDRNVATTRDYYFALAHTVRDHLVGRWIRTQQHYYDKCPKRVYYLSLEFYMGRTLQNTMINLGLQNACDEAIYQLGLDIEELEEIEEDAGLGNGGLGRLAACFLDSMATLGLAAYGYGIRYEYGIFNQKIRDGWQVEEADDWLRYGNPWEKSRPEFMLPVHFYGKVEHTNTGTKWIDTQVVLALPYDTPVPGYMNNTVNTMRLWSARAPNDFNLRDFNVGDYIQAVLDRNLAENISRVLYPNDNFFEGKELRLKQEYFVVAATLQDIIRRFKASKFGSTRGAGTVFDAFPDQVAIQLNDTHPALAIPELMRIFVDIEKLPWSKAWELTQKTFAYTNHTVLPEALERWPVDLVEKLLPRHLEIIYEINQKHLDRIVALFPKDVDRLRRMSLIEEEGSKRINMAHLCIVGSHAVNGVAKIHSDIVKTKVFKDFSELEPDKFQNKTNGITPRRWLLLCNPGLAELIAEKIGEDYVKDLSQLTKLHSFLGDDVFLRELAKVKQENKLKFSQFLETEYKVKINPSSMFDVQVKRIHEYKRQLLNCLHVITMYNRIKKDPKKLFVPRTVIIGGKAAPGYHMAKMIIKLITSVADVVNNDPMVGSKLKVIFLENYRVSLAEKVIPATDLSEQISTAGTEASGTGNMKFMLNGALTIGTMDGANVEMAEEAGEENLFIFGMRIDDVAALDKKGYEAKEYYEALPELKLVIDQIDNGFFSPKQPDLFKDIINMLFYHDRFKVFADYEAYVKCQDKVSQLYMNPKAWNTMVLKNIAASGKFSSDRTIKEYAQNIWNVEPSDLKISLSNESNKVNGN
# [4] = molecular target: T3, Glycogen phosphorylase, muscle form (Oryctolagus cuniculus) (UniProt P00489); experiment: Inhibition of rabbit skeletal muscle glycogen phosphorylase b assessed as inorganic phosphate release using glucose-1-phosphate as substrate at pH 6.8 at 300 uM
# T3 sequence (whole entry): T1 sequence (P00489 whole entry)
# [5] = Aqueous solubility of the compound in 20% DMSO; assay type: physicochemical; settings: buffer
# [6] = molecular target: T3, Glycogen phosphorylase, muscle form (Oryctolagus cuniculus); experiment: Inhibition of rabbit skeletal muscle glycogen phosphorylase b assessed as inorganic phosphate release using glucose-1-phosphate as substrate at pH 6.8 at 200 uM
# [7] = molecular target: T3, Glycogen phosphorylase, muscle form (Oryctolagus cuniculus); experiment: Inhibition of rabbit skeletal muscle glycogen phosphorylase b assessed as inorganic phosphate release using glucose-1-phosphate as substrate at pH 6.8 at 500 uM
# [8] = molecular target: T1, Glycogen phosphorylase, muscle form; experiment: Inhibition of rabbit skeletal muscle glycogen phosphorylase b assessed as reduction in inorganic phosphate release using glucose-1-phosphate as substrate at pH 6.8
# [9] = molecular target: T3, Glycogen phosphorylase, muscle form (Oryctolagus cuniculus); experiment: Inhibition of rabbit skeletal muscle glycogen phosphorylase b assessed as inorganic phosphate release using glucose-1-phosphate as substrate at pH 6.8 at 250 uM
# [10] = molecular target: T3, Glycogen phosphorylase, muscle form (Oryctolagus cuniculus); experiment: Inhibition of rabbit skeletal muscle glycogen phosphorylase b assessed as inorganic phosphate release using glucose-1-phosphate as substrate at pH 6.8 at 1000 uM
SMILES,solubility [1],solubility [5],also measured
N=C1N=C(Nc2ccc(-c3nc4ccccc4[nH]3)cc2)CN1,Insoluble,,
O=C(N[C@@H](Cc1ccc(F)cc1)C(=O)C(=O)N1CCC(O)CC1)c1cc2cc(Cl)ccc2[nH]1,,,IC50 [2]: 0.178 µM; IC50 [3]: 0.2 µM
O=C(O)c1cc(Nc2ccc(-c3nc4ccccc4[nH]3)cc2)n(-c2ccccc2)n1,Insoluble,,inhibition [4]: 25%
Cc1nn(-c2ccccc2)c(C)c1/N=N/c1ccc(-c2nc3ccccc3[nH]2)cc1,Insoluble,,
CC(=O)C/C(C)=N/c1ccc(-c2nc3ccccc3[nH]2)cc1,Insoluble,Soluble,inhibition [6]: 7%
O=C(O)c1cc(Nc2ccc(-c3nc4ccccc4[nH]3)cc2)[nH]n1,Insoluble,Insoluble,
O=C(NC(=O)c1cc(F)c(F)cc1Cl)Nc1ccsc1-c1n[nH]c(=O)o1,,,IC50 [3]: 30 µM
Cc1ccc(S(=O)(=O)Nc2ccc(-c3nc4ccccc4[nH]3)cc2)cc1,Insoluble,Soluble,inhibition [7]: 20.7%
O=c1[nH][nH]c(O)c1/N=N/c1ccc(-c2nc3ccccc3[nH]2)cc1,Insoluble,,inhibition [7]: 29.4%
O=C1N=C(Nc2ccc(-c3nc4ccccc4[nH]3)cc2)CNN1,Insoluble,,IC50 [8]: 437 µM
CN(C)C(=O)[C@H](O)[C@H](Cc1ccccc1)NC(=O)c1cc2cc(Cl)ccc2[nH]1,,,IC50 [3]: 0.082 µM
c1ccc2[nH]c(-c3ccc(NC4=NCCNC4)cc3)nc2c1,Insoluble,,
Cc1nn(-c2ccc([N+](=O)[O-])cc2)c(C)c1/N=N/c1ccc(-c2nc3ccccc3[nH]2)cc1,Insoluble,,IC50 [8]: 532 µM
Cc1n[nH]c(C)c1/N=N/c1ccc(-c2nc3ccccc3[nH]2)cc1,Insoluble,,
O=C1N=C(Nc2ccc(-c3nc4ccccc4[nH]3)cc2)CN1,Insoluble,,
CC(=O)C(/N=N/c1ccc(-c2nc3ccccc3[nH]2)cc1)=C(/C)O,Insoluble,Soluble,
S=C1N=C(Nc2ccc(-c3nc4ccccc4[nH]3)cc2)CN1,Insoluble,,
O=C(CCl)Nc1ccc(-c2nc3ccccc3[nH]2)cc1,Insoluble,Soluble,
O=[N+]([O-])c1ccccc1S(=O)(=O)Nc1ccc(-c2nc3ccccc3[nH]2)cc1,Insoluble,Soluble,IC50 [8]: 358 µM
O=C(O)c1cc(Nc2ccc(-c3nc4ccccc4[nH]3)cc2)n(-c2ccc([N+](=O)[O-])cc2)n1,Insoluble,,inhibition [9]: 8.1%
O=C(O)/C=C/C(=O)Nc1ccc(-c2nc3ccccc3[nH]2)cc1,Insoluble,,inhibition [10]: 45%
CCOC(=O)C(=NNc1ccc(-c2nc3ccccc3[nH]2)cc1)C(=O)OCC,Insoluble,Soluble,
Oc1nc(=S)[nH]c(O)c1/N=N/c1ccc(-c2nc3ccccc3[nH]2)cc1,Insoluble,,inhibition [6]: 16.1%
S=C1N=C(Nc2ccc(-c3nc4ccccc4[nH]3)cc2)CNN1,Insoluble,Soluble,
Nc1ccc(-c2nc3ccccc3[nH]2)cc1,Insoluble,,
O=S(=O)(Nc1ccc(-c2nc3ccccc3[nH]2)cc1)c1ccccc1,Insoluble,Soluble,IC50 [8]: 324 µM
